Values quoted from earlier work in patent publication US20010041964A1, “PHARMACOKINETIC-BASED DRUG DESIGN TOOL AND METHOD” (priority 1998, published 2001).

Legend:
[1] = not given; remark: listed apart in the source
[2] = not given; remark: listed apart in the source
[3] = system: rabbit intestinal tissue (duodenum, jejunum, ileum, colon); settings: donor concentration per compound; for Pe (cm/s) Colon: rabbit colon; for Pe (cm/s) Duodenum: rabbit duodenum; for Pe (cm/s) Ileum: rabbit ileum; for Pe (cm/s) Jejunum: rabbit jejunum
intestinal transport = settings: permeability standard
[4] = oral, human

k12 (Appendix 2, mass-volume model) | k21 (Appendix 2, mass-volume model) | k_elim (Appendix 2, mass-volume model) | Plasma Kinetics Fluid Volume (Table 11) | Plasma Kinetics k12 (Table 11) | Plasma Kinetics k21 (Table 11) | Plasma Kinetics kelim (Table 11) | Bioavailability of fasted patients in clinical trials ([1]; fasted patients, Phase I studies) | Cmax (mcg/ml), Clinical 1505a ([1]; human clinical study 1505a) [µg/mL] | Tmax (hrs), Clinical 1505a ([1]; human clinical study 1505a) [h] | Cmax (mcg/ml), Clinical 1505b ([1]; human clinical study 1505b) [µg/mL] | Tmax (hrs), Clinical 1505b ([1]; human clinical study 1505b) [h] | In vivo biotransformation [2] | Absorption ([2]; in vivo) | Pe (cm/s) Colon [3] [cm/s] | Pe (cm/s) Duodenum [3] [cm/s] | Pe (cm/s) Ileum [3] [cm/s] | Pe (cm/s) Jejunum [3] [cm/s] | Transport mechanism (intestinal transport) | Bioavailability in humans when orally administered [4] | SMILES
k12 = .839 | k21 = .67 | k_elim = .161 | 76,800 ml | 0.839 | 0.670 | 0.161 | 3-20% | 0.55 | 1.43 | 0.59 | 1.43 | no in vivo biotransformation | poorly absorbed | – | – | – | – | – | – | Nc1nc2c(ncn2COC(CO)CO)c(=O)[nH]1.[Na] [Gancyclovir, 9-(1,3-dihydroxy-2-propoxymethyl)guanine, monosodium salt]
– | – | – | – | – | – | – | – | – | – | – | – | – | – | 3.85e-06 | 3e-07 | 2.91e-06 | 1.31e-06 | – | – | C[C@]12CCC(=O)C=C1CC[C@@H]1[C@@H]2[C@@H](O)C[C@@]2(C)[C@H]1CC[C@]2(O)C(=O)CO [hydrocortisone]
– | – | – | – | – | – | – | – | – | – | – | – | – | – | 9.28e-06 | 4.55e-06 | 1.45e-05 | 1.02e-05 | Carrier-mediated Influx | – | O=C[C@H](O)[C@@H](O)[C@H](O)[C@H](O)CO [D-glucose]
– | – | – | – | – | – | – | – | – | – | – | – | – | – | 5.53e-06 | 1.73e-06 | 4.02e-06 | 3.54e-06 | Passive Paracellular | approximately 10% | OC[C@@H](O)[C@@H](O)[C@H](O)[C@H](O)CO [mannitol]
